Patent US12233056B2, “Lysyl oxidase inhibitors for treating myeloid malignancies” (Syntara Limited, priority 2022, dated 2025)

Tests used:
[1] = test system: in vitro co-cultured, patient derived, MSC/HSC cells; test: Erythroid differentiation in in vitro co-cultured, patient derived MSC/HSC cells; assay type: cell-based, human; settings: 2 μM PXS-5505, 100 nM 5-AZA daily; flow cytometry after 14 days; n=3; FIG. 1
From the text: Healthy CD34+ cells were isolated from hip replacement surgery bone specimen (old CD34+ cells) or collected by iliac crest puncture of healthy volunteers (young CD34+ cells). Approval for collection of patient samples was given by the Institutional Review Board of the Medical Faculty Mannheim, University of Heidelberg, Germany, in accordance with the declaration of Helsinki. All patients were informed and provided written consent for sample collection. Mononuclear cells (MNC) were isolated from bone marrow by Ficoll density gradient. CD34+ cells from MNC were isolated using MACS enrichment columns (Miltenyi Biotec, Bergisch Gladbach, Germany) according to the manufacturer's instructions as described. Purity of the CD34+ populations were confirmed by FACS analysis to be >95%. These were then viably frozen and thawed immediately before xenotransplantation.
Mesenchymal stromal cells (MSC) were isolated from residual diagnostic material and selected via their plastic adherence properties in culture. MSC were expanded in NH-Expansion medium (Miltenyi Biotec) and cultured to a maximum of 4 passages. Ex-vivo expanded MSCs were FACS analyzed to confirm adherence to the minimal criteria for defining multipotent mesenchymal stromal cells as described in [Medyouf, 2014]. […]

[2] = test system: erythroid differentiation (the CD235a+ and CD45− population) in the bone marrow collected from xenotransplanted mice; test: Xenotransplantation model: erythroid differentiation from bone marrow of xenotransplanted mice; assay type: in vivo; settings: 5-AZA 75 mg/m2 5+2 schedule, 3 cycles; PXS-5505 30 mg/kg every 48 h; 3 months; FIG. 2
Protocol: Female immunocompromised mice (NSG and NSGS, Jackson Laboratory) aged 6-8 week old were sub-lethally irradiated (200 cGy) before intrafemoral injections with a mix of CD34+ and MSCs cells (1×10^5:5×10^5) from primary myelofibrosis patients (with grade 3 fibrosis) as described previously [Medyouf, 2014]. The mice were treated with 5-AZA (75 mg/m^2 5+2 schedule, 3 cycles in total) and/or PXS-5505 (30 mg/kg every 48 h for the duration of 5-AZA treatment) for 3 months. At endpoint human CD45+ cells were FACS-sorted from mouse bone marrow. The CD45+ cells were differentiated in the medium supplemented with 5 U/mL EPO, 100 ng/mL SCF and 5 ng/mL IL-3 for 21 days followed by flow cytometry analysis for CD235a and CD45 markers as described previously.
Furthermore, it presents the rescue erythroid differentiation for a variety of different disease subtypes of myelodysplastic syndrome, chronic myelomonocytic leukemia and acute myeloid leukemia.

In the case of `NC/C=C(\F)CS(=O)(=O)c1cccc2cccnc12` [PXS-5505], the “erythroid differentiation (CD235a+, CD45− cells)” value [1] is reported as “could rescue erythropoiesis” and the “erythroid differentiation (CD235a+ and CD45− population) in bone marrow from xenotransplanted mice” value [2] is reported as “could rescue erythropoiesis”.
